Reference: PubChem BioAssay AID977619 (Broad Institute, 2014)
Where “and” joins values, the source holds several entries; their conditions need not be identical. Identical values can stand only once. Calls of active or inactive are those of the source.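 The calls were made as follows: active = viability signal falls, with AC50 at or below a set limit tied to the top tested dose; inconclusive = flat curve with moderate signal loss, or poor fit; inactive = the rest, including rising signal.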

System: not listed separately
Test: viability loss in HepG2 hepatoma cells – cell-based, CellTiter-Glo luminescence, dry powder, set 13, cytotoxicity control, dose response (AID 977619)
Conditions: HepG2 viability, CellTiter-Glo ATP luminescence, 72 h; at 30 µM (top of the series)

Row | Compound | activity change, negative = cytotoxicity
1 | Cc1cnc(NC(=O)c2cc(S(=O)(=O)N(C)c3ccccc3)ccc2N2CCCC2)s1 | 2.13% (inactive)
2 | CN(C)CCCN(Cc1cc2ccccc2[nH]c1=O)C(=O)NCc1ccccc1 | -20.2% (inactive)
3 | Cc1cnc(NC(=O)c2cc(S(=O)(=O)N3CCCCC3)ccc2N2CCCC2)s1 | -1.49% (inactive)
4 | Cc1nc(NC(=O)c2cc(S(=O)(=O)N(C)C)ccc2N2CCCC2)n[nH]1 | 7.89% (inactive)
5 | CN(C)S(=O)(=O)c1ccc(N2CCCC2)c(C(=O)Nc2ccccc2F)c1 | 0.657% (inactive)
6 | COc1ccccc1NC(=O)c1cc(S(=O)(=O)N(C)C)ccc1N1CCCC1 | -1.12% (inactive)
7 | Cc1cnc(NC(=O)c2cc(S(=O)(=O)N(C)C)ccc2N2CCCCC2)s1 | -24.5% (inactive)
8 | Cc1cnc(NC(=O)c2cc(S(=O)(=O)N(C)C)ccc2N2CCNCC2)s1 | 2.09% (inactive)
9 | Cc1cnc(NC(=O)c2cc(S(=O)(=O)NCc3ccccc3)ccc2N2CCCC2)s1 | -8.91% (inactive)
10 | Cc1cnc(NC(=O)c2cc(S(=O)(=O)N(CC(C)C)CC(C)C)ccc2N2CCCC2)s1 | 2.42% (inactive)
11 | Cc1cnc(NC(=O)c2cc(S(=O)(=O)N(C)C)ccc2N(C)C)s1 | -8.52% (inactive)
12 | COc1ccc2sc(NC(=O)c3cc(S(=O)(=O)N(C)C)ccc3N3CCCC3)nc2c1 | 12.7% (inactive)
13 | COc1cccc2sc(NC(=O)c3cc(S(=O)(=O)N(C)C)ccc3N3CCCC3)nc12 | -0.843% (inactive)
14 | CN(C)CCCN(Cc1cc2ccccc2[nH]c1=O)C(=O)Nc1ccccc1 | -20.2% (inactive)
15 | CN(C)S(=O)(=O)c1ccc(N2CCCC2)c(C(=O)Nc2nccs2)c1 | -14.2% (inactive)
16 | Cc1cnc(NC(=O)c2cc(S(=O)(=O)N(C)C)ccc2N2CCC2)s1 | -16.2% (inactive)
17 | CN(C)S(=O)(=O)c1ccc(N2CCCC2)c(C(=O)Nc2nc3ccccc3s2)c1 | -28% (inactive)
18 | CN(C)S(=O)(=O)c1ccc(N2CCCC2)c(C(=O)N2CCOCC2)c1 | -23.2% (inactive)
19 | Cc1cnc(NC(=O)c2cc(S(=O)(=O)N(C)C)ccc2N2CCCC2)s1 | -11% (inactive) and -24.4% (inactive)

Row | Compound | activity change, negative = cytotoxicity
20 | CN(C)S(=O)(=O)c1ccc(N2CCCC2)c(C(=O)Nc2cccnc2)c1 | -8.96% (inactive)
21 | Cc1cnc(NC(=O)c2cc(S(=O)(=O)N3CCNCC3)ccc2N2CCCC2)s1 | -16.2% (inactive)
22 | Cc1ccccc1NC(=O)c1cc(S(=O)(=O)N(C)C)ccc1N1CCCC1 | -8.5% (inactive)
23 | CCN(CC)S(=O)(=O)c1ccc(N2CCCC2)c(C(=O)Nc2ncc(C)s2)c1 | -6.49% (inactive)
24 | Cc1nnc(NC(=O)c2cc(S(=O)(=O)N(C)C)ccc2N2CCCC2)s1 | -4.85% (inactive)
25 | COc1ccc2nc(NC(=O)c3cc(S(=O)(=O)N(C)C)ccc3N3CCCC3)sc2c1 | -15% (inactive)
26 | Cc1ccc(NC(=O)c2cc(S(=O)(=O)N(C)C)ccc2N2CCCC2)cc1 | -24% (inactive)
27 | CN(C)S(=O)(=O)c1ccc(N2CCCC2)c(C(=O)Nc2ccccc2Cl)c1 | 0.028% (inactive)
28 | CN(C)S(=O)(=O)c1ccc(N2CCCC2)c(C(=O)Nc2cccc(F)c2)c1 | -10% (inactive)
29 | CN(C)S(=O)(=O)c1ccc(N2CCCC2)c(C(=O)NC2CCCCC2)c1 | -17.5% (inactive)
30 | CN(C)S(=O)(=O)c1ccc(N2CCCC2)c(C(=O)Nc2ccc(Br)cc2)c1 | 3.71% (inactive)
31 | CN(C)C(=O)c1cc(S(=O)(=O)N(C)C)ccc1N1CCCC1 | -5.71% (inactive)
32 | Cc1cnc(NC(=O)c2cccc(S(=O)(=O)N(C)C)c2)s1 | 0.262% (inactive)
33 | Cc1cnc(NC(=O)c2cc(S(=O)(=O)N3CCOCC3)ccc2N2CCCC2)s1 | -27.5% (inactive)
34 | Cc1cnc(NC(=O)c2cc(S(=O)(=O)N(C)C)ccc2C2CCCC2)s1 | 1.56% (inactive)
35 | COc1ccc(NC(=O)c2cc(S(=O)(=O)N(C)C)ccc2N2CCCC2)cc1 | -5.62% (inactive)
36 | CCN(CC)c1ccc(S(=O)(=O)N(C)C)cc1C(=O)Nc1ncc(C)s1 | -14.5% (inactive)
37 | CN(C)S(=O)(=O)c1ccc(N2CCCC2)c(C(=O)Nc2ccncc2)c1 | -16.4% (inactive)
38 | CN(C)S(=O)(=O)c1ccc(N2CCCC2)c(C(=O)Nc2ccccc2)c1 | -16.8% (inactive)

System: HepG2 viability, CellTiter-Glo ATP luminescence, 72 h
Test: as above
Conditions: not given

Row | Compound | AC50
39 | Cc1csc(NC(=O)c2cc(S(=O)(=O)N(C)C)ccc2N2CCCC2)n1 | > 60 µM (inactive)
40 | Cc1cnc(NC(=O)c2cc(S(=O)(=O)N3CCCC3)ccc2N2CCCC2)s1 | > 60 µM (inactive)
